Assay results published in PubChem BioAssay AID1963850 (Molecular Pharmacology Branch, DTP, NCI, 2024).

System: 192522-019-R-J2-PDC complex tumor spheroid viability
Experiment: Anticancer human tumor 192522-019-R-J2-PDC patient-derived colon adenocarcinoma cell line growth inhibition [POLQ]
Conditions: for IC50: curve of first compound; for viability, T/C: stronger effect = lower value
Outline: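 Complex spheroid viability model combining PDC tumour cells with endothelial (HUVEC) and MSC stromal cells. Novobiocin, ART-558 or RP6685 were tested singly and in combination with standard and investigational anticancer drugs. Each was titrated in half-log steps from near clinical Cmax, or from 10 microM where Cmax was unknown.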

[1] = second compound 0.0316 µM, first compound 0.00316 µM
[2] = second compound 0.0316 µM, first compound 0.01 µM
[3] = second compound 0.0316 µM, first compound 0.0316 µM
[4] = second compound 0.0316 µM, first compound 0.1 µM
[5] = second compound 0.1 µM, first compound 0.00316 µM
[6] = second compound 0.1 µM, first compound 0.01 µM
[7] = second compound 0.1 µM, first compound 0.0316 µM
[8] = second compound 0.1 µM, first compound 0.1 µM
[9] = second compound 0.316 µM, first compound 0.00316 µM
[10] = second compound 0.316 µM, first compound 0.01 µM
[11] = second compound 0.316 µM, first compound 0.0316 µM
[12] = second compound 0.316 µM, first compound 0.1 µM
[13] = second compound 1 µM, first compound 0.00316 µM
[14] = second compound 1 µM, first compound 0.01 µM
[15] = second compound 1 µM, first compound 0.0316 µM
[16] = second compound 1 µM, first compound 0.1 µM
[17] = second compound 3.16 µM, first compound 0.00316 µM
[18] = second compound 3.16 µM, first compound 0.01 µM
[19] = second compound 3.16 µM, first compound 0.0316 µM
[20] = second compound 3.16 µM, first compound 0.1 µM
[21] = second compound 10 µM, first compound 0.00316 µM
[22] = second compound 10 µM, first compound 0.01 µM
[23] = second compound 10 µM, first compound 0.0316 µM
[24] = second compound 10 µM, first compound 0.1 µM
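Further: spheroids exposed to drugs for seven days before reading.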
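Wherever viability, T/C is given: 100% = DMSO vehicle control viability in luminescence.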

## COc1cccc(OCCCN)c1-c1cc(Nc2cnc(C#N)cn2)n[nH]1 + Cc1cccc(N(C)C(=O)C2C(O)CCN2c2nc(C)cc(C(F)(F)F)c2C#N)c1
Second compound 0.0316 µM
  IC50: 28.3 nM
Second compound 0.1 µM
  IC50: 30.1 nM
Second compound 0.316 µM
  IC50: 48.4 nM
Second compound 1 µM
  IC50: 71.6 nM
Second compound 3.16 µM
  IC50: 59.1 nM
Second compound 10 µM
  IC50: 54.6 nM
[1]
  viability, T/C: 91.4%
[2]
  viability, T/C: 92.1%
[3]
  viability, T/C: 45.4%
[4]
  viability, T/C: 41%
Second compound 0.0316 µM, first compound 0.316 µM
  viability, T/C: 39.8%
Second compound 0.0316 µM, first compound 1 µM
  viability, T/C: 38%
[5]
  viability, T/C: 107%
[6]
  viability, T/C: 83.4%
[7]
  viability, T/C: 49.5%
[8]
  viability, T/C: 35.5%
Second compound 0.1 µM, first compound 0.316 µM
  viability, T/C: 41.1%
Second compound 0.1 µM, first compound 1 µM
  viability, T/C: 39%
[9]
  viability, T/C: 100%
[10]
  viability, T/C: 86.2%
[11]
  viability, T/C: 54%
[12]
  viability, T/C: 44%
Second compound 0.316 µM, first compound 0.316 µM
  viability, T/C: 38.1%
Second compound 0.316 µM, first compound 1 µM
  viability, T/C: 43.4%
[13]
  viability, T/C: 115%
[14]
  viability, T/C: 97.4%
[15]
  viability, T/C: 62%
[16]
  viability, T/C: 44.9%
Second compound 1 µM, first compound 0.316 µM
  viability, T/C: 45.3%
Second compound 1 µM, first compound 1 µM
  viability, T/C: 36.8%
[17]
  viability, T/C: 108%
[18]
  viability, T/C: 99.2%
[19]
  viability, T/C: 58.8%
[20]
  viability, T/C: 41.5%
Second compound 3.16 µM, first compound 0.316 µM
  viability, T/C: 44.1%
Second compound 3.16 µM, first compound 1 µM
  viability, T/C: 39.9%
[21]
  viability, T/C: 105%
[22]
  viability, T/C: 89.4%
[23]
  viability, T/C: 53%
[24]
  viability, T/C: 47.2%
Second compound 10 µM, first compound 0.316 µM
  viability, T/C: 48%
Second compound 10 µM, first compound 1 µM
  viability, T/C: 43.6%

## Cn1ncnc1[C@H]1c2n[nH]c(=O)c3cc(F)cc(c23)N[C@@H]1c1ccc(F)cc1 + Cc1cccc(N(C)C(=O)C2C(O)CCN2c2nc(C)cc(C(F)(F)F)c2C#N)c1
Second compound 0.0316 µM
  IC50: > 100 nM
Second compound 0.1 µM
  IC50: > 100 nM
Second compound 0.316 µM
  IC50: > 100 nM
Second compound 1 µM
  IC50: > 100 nM
Second compound 3.16 µM
  IC50: > 100 nM
Second compound 10 µM
  IC50: > 100 nM
Second compound 0.0316 µM, first compound 0.000316 µM
  viability, T/C: 109%
Second compound 0.0316 µM, first compound 0.001 µM
  viability, T/C: 96.1%
[1]
  viability, T/C: 96.3%
[2]
  viability, T/C: 103%
[3]
  viability, T/C: 110%
[4]
  viability, T/C: 88.6%
Second compound 0.1 µM, first compound 0.000316 µM
  viability, T/C: 99.2%
Second compound 0.1 µM, first compound 0.001 µM
  viability, T/C: 96.3%
[5]
  viability, T/C: 105%
[6]
  viability, T/C: 101%
[7]
  viability, T/C: 108%
[8]
  viability, T/C: 101%
Second compound 0.316 µM, first compound 0.000316 µM
  viability, T/C: 111%
Second compound 0.316 µM, first compound 0.001 µM
  viability, T/C: 103%
[9]
  viability, T/C: 114%
[10]
  viability, T/C: 105%
[11]
  viability, T/C: 103%
[12]
  viability, T/C: 102%
Second compound 1 µM, first compound 0.000316 µM
  viability, T/C: 110%
Second compound 1 µM, first compound 0.001 µM
  viability, T/C: 108%
[13]
  viability, T/C: 109%
[14]
  viability, T/C: 103%
[15]
  viability, T/C: 100%
[16]
  viability, T/C: 95.3%
Second compound 3.16 µM, first compound 0.000316 µM
  viability, T/C: 125%
Second compound 3.16 µM, first compound 0.001 µM
  viability, T/C: 106%
[17]
  viability, T/C: 112%
[18]
  viability, T/C: 101%
[19]
  viability, T/C: 118%
[20]
  viability, T/C: 96.9%
Second compound 10 µM, first compound 0.000316 µM
  viability, T/C: 114%
Second compound 10 µM, first compound 0.001 µM
  viability, T/C: 103%
[21]
  viability, T/C: 119%
[22]
  viability, T/C: 102%
[23]
  viability, T/C: 111%
[24]
  viability, T/C: 101%
